# Data reported in US5373012A, “5-fluoro-2,4,6-pyrimidinetriamine compounds” (The Upjohn Company, priority 1993, dated 1994).
# “And” between values parts separate entries of the source, which are not always exact repeats. Equal entries are not always repeated.
# Key:
# [1] = in vivo hair growth assay using rats (shaved hair weighed every seven days); settings: for Hair Growth: mean
# Method: The 5-fluoro minoxidil compounds were evaluated for hair growth in an in vivo hair growth assay using rats. Each rat is dosed with vehicle and drug, 200-500 microliters per day, 5 days per week. Every seven days the treated areas are shaved and the hair removed is weighed to compare normal untreated hair growth to the drug treated hair growth.
# [2] = cardiovascular effects in vivo in conscious beagle dogs (mean arterial pressure, heart rate); settings: 1.5 mg/kg; N=1; FIG. 2; 5-fluoro minoxidil compared to minoxidil
# Method: The 5-fluoro minoxidil compounds were evaluated for cardiovascular effects in an in vivo test with beagle dogs. This test procedure is described in Humprey SJ, Zins GR, Whole Body and Regional Hemodynamic Effects of Minoxidil in the Conscious Dog, J. Card, Pharm. 6:979-88 (1984) and in Humprey, S.J., Zins, G.R., The Effects of Indomethacin on the Systemic and Regional Vasodilator Responses to Minoxidil in the Conscious Dog, Chem. Path. & Pharm. 59:1 3-20 (1988). Experiments were conducted using a radiolabeled tracer microspheres technique, Wagner NH et al., Studies of the Circulation with Radioactive Microspheres, Invest. Radiol. 4:374-86 (1969), with conscious beagle dogs. The results of a rapid evaluation (N=1) of the 5-fluoro minoxidil compound compared to minoxidil are presented in FIG. 1 change in Mean Arterial Pressure versus Time at the doses indicated and FIG. 2 Changes in Heart Rate versus Time at the doses indicated.
# [3] = transdermal absorption: urinary excretion of drug after topical application in rats; format: in vivo; settings: for AVERAGE of total micrograms excreted: average of three rats, urine over 24 hours on fifth day; for AVERAGE of total micrograms excreted / TOTAL MICROGRAMS EXCRETED: 50/30/20 propylene glycol/ethanol/water; for TOTAL MICROGRAMS EXCRETED: individual rats 1-3, urine over 24 hours on fifth day after four days topical treatment
# Method: The ability of the 5-fluoro minoxidil to be absorbed in transdermal applications was measured versus minoxidil as a control. Three rats were treated with each compound for four days and on the fifth day their urine was collected over a 24 hour period. The urine was then analyzed for drug levels and converted to micrograms urine excreted per 24 hours. The compounds were administered in a 50/30/20 propylene glycol/ethanol/water vehicle.
# [4] = hair growth in stumptail macaque monkeys (balding scalp, hair weight change from baseline); format: in vivo, stumptail macaque (Macaca specoisa) monkeys; settings: Table III; topical 100 mM in 50% propylene glycol/50% ethanol, sixteen weeks; vehicle -1.8 ± 2.7; mean±SEM
# Method: The 5-fluoro minoxidil compounds were evaluated in the macaque monkey models and show significant hair growth results.
# Thirteen stumptail macaque (Macaca specoisa) monkeys (mixed sexes) were assigned to vehicle control and drug treated groups on the basis of baseline hair weight data.
# 1. Topical 50:50 vehicle (N=7)
# The control consisted of 50% propylene glycol, 50% ethanol. The experimental composition consisted of a 100 mM concentration of topical 5-fluoro minoxidil formulated in the control vehicle. Immediately prior to the dosing phase of the study, hair was removed from a 1 inch square area (identified by four tattoos) in the center of the balding scalp. This hair collection was the baseline hair growth determination prior to the beginning of treatment. Approximately 250 μL of vehicle or 100 mM 5-fluoro minoxidil (prepared in vehicle)were topically administered to the tattooed area of the scalp. The monkeys were dosed once per day, five days per week for sixteen weeks.
# At four week intervals throughout the dosing phase of the study, each monkey was shaved and the hair was collected and weighed. The body weight data (at baseline and during assay) were analyzed by the nonparametric Wilcoxon rank-sum test. Differences were significant at p<0.05. The hair weight data (mean±SEM) at each 4 week collection for vehicle and treatment groups were expressed as the change from baseline. […]
AVERAGE of total micrograms excreted [3],SMILES,statistical difference (p) between the two agents in level of hair growth stimulation ([1]; 100 mM minoxidil vs 25 mM 5-fluoro-minoxidil),"Hair Growth ([1]; Table II, 100 mM minoxidil in 100% PG (propylene glycol), 100% PG alone +0.487)",change in Heart Rate [2],TOTAL MICROGRAMS EXCRETED [3],"Hair Growth ([1]; Table I, 1 mM, topical, vehicle 50/30/20 propylene glycol/ethanol/water, vehicle +0.527 ± 0.081)","Hair Growth ([1]; Table I, 5 mM, topical, vehicle 50/30/20 propylene glycol/ethanol/water, vehicle +0.527 ± 0.081)","Hair Growth ([1]; Table I, 25 mM, topical, vehicle 50/30/20 propylene glycol/ethanol/water, vehicle +0.527 ± 0.081)","Hair Growth ([1]; Table II, 25 mM 5-fluoro-minoxidil in 50/30/20 propylene glycol/ethanol/water, vehicle +0.528)",Hair Growth (cumulative change in hair weight from baseline) [4],transdermal transport properties versus unsubstituted minoxidil ([3]; in words),"absorption versus minoxidil ([3]; transdermal, rats, in words)"
454 MICROGRAMS,"Nc1cc(N2CCCCC2)nc(N)[n+]1[O-] [Minoxidil, reference compound]",no statistical difference,+1.065 mg/in^2 /day,increases in heart rate,354 MICROGRAMS and 358 MICROGRAMS and 651 MICROGRAMS,–,–,–,–,–,–,–
1427 MICROGRAMS,"Nc1nc(N2CCCCC2)c(F)c(N)[n+]1[O-] [5-fluoro minoxidil, 5-Fluoro-6-piperidinyl-2,4-pyrimidinediamine, 3-Oxide]",–,–,–,1229 MICROGRAMS and 1132 MICROGRAMS and 1921 MICROGRAMS,+0.609 ± 0.083 mg/in^2 /day,+0.760 ± 0.153 mg/in^2 /day,+0.952 ± 0.149 mg/in^2 /day,+0.938 mg/in^2 /day,+14.8 ± 3.1 mg,superior transdermal transport properties over unsubstituted minoxidil,superior absorption over the minoxidil control
